Results on 38 molecules are retold here after publication PMC8910697, “Development of VPC-70619, a Small-Molecule N-Myc Inhibitor as a Potential Therapy for Neuroendocrine Prostate Cancer” (International Journal of Molecular Sciences, 2022).

The test has as its system N-Myc-Max transcription activity (LNCaP-NMYC cells). Description: Myc transcription assay (Cignal Myc reporter, luciferase) in LNCaP-NMYC cells. It counts as cell-based. More on the design: 10 uM corrected / 5uM corrected: unit not given here. The following applies: for inhibition at 5 µM / inhibition at 10 µM: 24 h; for inhibition at 5 µM / inhibition at 10 µM / transcription inhibition activity (in words) / transcription inhibition activity at 5 µM (in words): LNCaP-NMYC; for inhibition at 5 µM: read-out: % Transcript Inhibition (5 µM); for inhibition at 10 µM: read-out: % Transcript Inhibition (10 µM); for IC50: Homo sapiens, LNCaP, Table 2, transcriptional assay in LNCaP cells overexpressing N-Myc, read-out: IC50; for 5uM corrected / 10 uM corrected: sheet 181_set; for transcription inhibition activity (in words): screened at 10 µM and 5 µM. The protocol:
To determine the optimal substitutions on the free phenyl ring, we used the active scaffold for a second substructure search against the ZINC15 database to identify a set of 181 analogues for further validation (VPC-70617 to -70799, presented in Supplementary Table S1). Compounds were tested for their inhibition of a N-Myc-Max luciferase transcription activity assay at 5 and 10 µM Figure 2a. Herein, we inspected all the proposed substitutions on the scaffold to discern the features required to construct a possible SAR model for inhibitors targeting N-Myc-Max/DBD complex (Figure 2b).
LNCaP-NMYC cells were transfected using TransIT-2020 transfection reagents per the manufacturer’s protocol. Cells were plated at a density of 10,000 cells per well of a 96-well plate. Following 24 h treatment with 5 µM or 10 µM of the compounds, the Myc reporter activity was measured using the Cignal Myc Reporter Assay Kit from Qiagen (#336841) (Hilden, Germany) per the manufacturer’s instructions.

With `N#Cc1ccc(NNC(=O)c2ccc(OC(F)F)cc2)c(C(F)(F)F)c1` [compound 70588], the inhibition (commonly the drop in the measured response relative to a control, in per cent) at 5 µM was 32% and the inhibition at 10 µM was determined as 46%.

Consider `CC(C)c1ccc(C(=O)NNc2ccc(C#N)cc2C(F)(F)F)cc1` [compound 70595], for which the inhibition at 5 µM was 30%; the inhibition at 10 µM is 70%; the IC50 – broadly, the concentration needed to halve the response being measured – turned out to be 12 µM.

Consider `Cc1ccc(C(=O)NNc2ccc(C#N)cc2C(F)(F)F)cc1F` [compound 70765], for which the 5uM corrected is on record as 30, the “10 uM corrected” value was 54 and the “transcription inhibition activity (in words)” value is “lower transcription inhibition or no activity at all”.

For `CC(C)(C#N)c1ccc(C(=O)NNc2ccc(C#N)cc2C(F)(F)F)cc1` [compound 70594], the inhibition at 5 µM was 22% and the inhibition at 10 µM is 10%.

Turning to `N#Cc1ccc(NNC(=O)c2cccc(C(F)(F)F)c2)c(C(F)(F)F)c1` [compound 70596], the inhibition at 5 µM worked out at 96%, the inhibition at 10 µM came out at 94%, the IC50 was determined as 2 µM and the “transcription inhibition activity (in words)” value is “significantly more active”.

Turning to `CC(F)(F)c1ccc(C(=O)NNc2ccc(C#N)cc2)cc1` [compound 70607], the inhibition at 5 µM is -20% and the inhibition at 10 µM was -8%.

Consider `N#Cc1ccc(C(=O)NNc2ccc(C#N)cc2C(F)(F)F)cc1` [compound 70593], for which the inhibition at 5 µM is -26%, the inhibition at 10 µM is 70%, the IC50 came out at 12 µM and the “transcription inhibition activity (in words)” value is listed as “significantly more active”.

Turning to `Cc1ccc(C(=O)NNc2ccc(C#N)cc2C(F)(F)F)cc1Cl` [compound 70628], the 5uM corrected came out at 8, the “10 uM corrected” value is reported as 90 and the “transcription inhibition activity (in words)” value is on record as “lower transcription inhibition or no activity at all”.

In the case of `CC(F)(F)c1ccc(C(=O)NNc2ccc(C#N)cc2C(F)(F)F)cc1` [compound 70608], the inhibition at 5 µM is -14% and the inhibition at 10 µM amounted to 38%.

For the molecule `O=C(NNc1ccc(C(F)(F)F)cc1)c1ccc(C(F)(F)F)cc1` [compound 70583], the inhibition at 5 µM stood at 8%, the inhibition at 10 µM amounted to 28% and the IC50 is above 20 µM.

On to `O=C(NNc1ccccc1F)c1ccc(C(F)(F)F)cc1` [compound 70585], for which the inhibition at 5 µM is 16%, the inhibition at 10 µM came out at 24% and the concentration for half-maximal inhibition (IC50) is above 20 µM.

As for `Cc1cc(C(=O)NNc2ccc(C#N)cc2C(F)(F)F)ccc1Cl` [compound 70617], the 5uM corrected was found to be 4, the “10 uM corrected” value is on record as 96 and the “transcription inhibition activity at 5 µM (in words)” value is reported as “did not impart any inhibitory activity”.

As for `N#Cc1ccc(NNC(=O)c2ccc(C#N)cc2)cc1` [compound 70587], the inhibition at 5 µM is -58% and the inhibition at 10 µM came out at 14%.

For `N#Cc1ccc(NNC(=O)c2ccccc2)c(C(F)(F)F)c1` [compound 70603], the inhibition at 5 µM is -30%, the inhibition at 10 µM was -12% and the IC50 was above 20 µM.

Take `N#Cc1ccc(NNC(=O)c2ccc(Cl)cc2Cl)c(C(F)(F)F)c1` [compound 70624]: the 5uM corrected stood at 8, the “10 uM corrected” value came to 78 and the “transcription inhibition activity (in words)” value was “abolished inhibitory activity”.

In the case of `N#Cc1ccc(NNC(=O)c2cc(F)c(F)cc2F)c(C(F)(F)F)c1` [compound 70772], the 5uM corrected was determined as 22, the “10 uM corrected” value came to 94 and the “transcription inhibition activity (in words)” value is given as “nullified activity”.

Take `O=C(NNc1ccccc1C(F)(F)F)c1ccc(F)cc1` [compound 70609]: the inhibition at 5 µM was 20% and the inhibition at 10 µM was found to be 12%.

`N#Cc1ccc(NNC(=O)c2ccc(Cl)cc2)c(C(F)(F)F)c1` [compound 70599]: the inhibition at 5 µM was found to be 96%, the inhibition at 10 µM stood at 78%, the IC50 worked out at 3 µM and the “transcription inhibition activity (in words)” value is reported as “significantly more active”.

Take `N#Cc1ccc(NNC(=O)c2ccc(C#N)c(O)c2)c(C(F)(F)F)c1` [compound 70673]: the 5uM corrected is recorded as -56 and the “10 uM corrected” value is -38.

Regarding `N#Cc1ccc(NNC(=O)c2ccccc2I)c(C(F)(F)F)c1` [compound 70702], the 5uM corrected is on record as -10, the “10 uM corrected” value is 10 and the “transcription inhibition activity (in words)” value was “declined considerably or was lost completely”.

Regarding `Cc1cc(C)cc(C(=O)NNc2ccc(C#N)cc2C(F)(F)F)c1` [compound 70651], the 5uM corrected is given as -32, the “10 uM corrected” value amounted to 0 and the “transcription inhibition activity (in words)” value is “no activity”.

As to `N#Cc1ccc(NNC(=O)c2ccc(C(F)(F)F)cc2)c(C(F)(F)F)c1` [compound 70597], the inhibition at 5 µM turned out to be 26%, the inhibition at 10 µM came out at 82% and the IC50 is 12 µM.

As for `CN(C)c1ccc(C(=O)NNc2ccc(C#N)cc2C(F)(F)F)cc1` [compound 70605], the inhibition at 5 µM is -74% and the inhibition at 10 µM is 26%.

Take `C=Cc1ccc(C(=O)NNc2ccc(C#N)cc2C(F)(F)F)cc1` [compound 70590]: the inhibition at 5 µM came to 38%, the inhibition at 10 µM is 62% and the IC50 is 15 µM.

As for `N#Cc1ccc(NNC(=O)c2ccc(Br)cc2)c(C(F)(F)F)c1` [compound 70602], the inhibition at 5 µM came to 12% and the inhibition at 10 µM is 48%.

In the case of `CC(F)(F)c1ccc(C(=O)NNc2ccccc2C(F)(F)F)cc1` [compound 70606], the inhibition at 5 µM stood at 0% and the inhibition at 10 µM is -10%.

Turning to `N#Cc1ccc(NNC(=O)c2ccccc2Cl)c(C(F)(F)F)c1` [compound 70701], the 5uM corrected is listed as -28, the “10 uM corrected” value worked out at 6 and the “transcription inhibition activity (in words)” value was “declined considerably or was lost completely”.

With `N#Cc1ccc(NNC(=O)c2ccc(C(N)=O)cc2)c(C(F)(F)F)c1` [compound 70601], the inhibition at 5 µM stood at 16% and the inhibition at 10 µM is -12%.

For the molecule `C#Cc1ccc(C(=O)NNc2ccc(C#N)cc2C(F)(F)F)cc1` [compound 70582], the inhibition at 5 µM turned out to be 44%, the inhibition at 10 µM worked out at 84% and the IC50 was found to be 8 µM.

With `N#Cc1ccc(NNC(=O)c2ccccc2F)c(C(F)(F)F)c1` [compound 70709], the 5uM corrected stood at 0, the “10 uM corrected” value was -10 and the “transcription inhibition activity (in words)” value was “declined considerably or was lost completely”.

On to `N#Cc1ccc(NNC(=O)c2ccc(I)cc2)c(C(F)(F)F)c1` [compound 70589], for which the inhibition at 5 µM was 64%, the inhibition at 10 µM came to 94% and the IC50 is 3 µM.

As to `N#Cc1ccc(NNC(=O)c2cccc(Br)c2)c(C(F)(F)F)c1` [compound 70754], the 5uM corrected is on record as 94, the “10 uM corrected” value is 60 and the “transcription inhibition activity (in words)” value is “better inhibition activity”.

On to `N#Cc1ccc(NNC(=O)c2ccc(C(F)(F)F)cc2)cc1` [compound 70586], for which the inhibition at 5 µM amounted to 28%, the inhibition at 10 µM is 34%, the IC50 was above 20 µM and the “transcription inhibition activity (in words)” value is “significantly reduced inhibition activity”.

Consider `N#Cc1ccc(NNC(=O)c2ccc(F)cc2)c(C(F)(F)F)c1` [compound 70591], for which the inhibition at 5 µM is 18%, the inhibition at 10 µM came out at 64% and the IC50 worked out at 25 µM.

In the case of `Cc1ccc(C(=O)NNc2ccc(C#N)cc2C(F)(F)F)cc1` [compound 70600], the inhibition at 5 µM is -22% and the inhibition at 10 µM stood at 10%.

Consider `O=C(NNc1ccccc1C(F)(F)F)c1ccc(C(F)(F)F)cc1` [compound 70611], for which the inhibition at 5 µM is -28%, the inhibition at 10 µM was 4%, the IC50 was above 20 µM and the “transcription inhibition activity (in words)” value was “significantly reduced inhibition activity”.

For the molecule `CS(=O)(=O)c1cc(C(=O)NNc2ccc(C#N)cc2C(F)(F)F)ccc1Cl` [compound 70721], the 5uM corrected was -42, the “10 uM corrected” value came to 2 and the “transcription inhibition activity at 5 µM (in words)” value is listed as “did not impart any inhibitory activity”.

Consider `N#Cc1ccc(C(=O)NNc2ccc(C(F)(F)F)cc2)cc1` [compound 70584], for which the inhibition at 5 µM stood at 34%, the inhibition at 10 µM came out at 30% and the IC50 is above 20 µM.
